Reference: patent US10711002B2, “Purine compounds and method for the treatment of cancer” (THE ROYAL INSTITUTION FOR THE ADVANCEMENT OF …, priority 2016, dated 2020)
pIC50: −log10 of the molar value.

Columns and labels:
Assay in all cases: High-throughput kinase assay
Type in all cases: biochemical
[1] = molecular target: RET (Homo sapiens, UniProt P07949); conditions: read-out: Percent inhibition of kinase activity in vitro, RET; for inhibition at 0.1 µM: 100 nM; for inhibition at 0.5 µM: 500 nM
Protocol: (§1) Screening of Compounds 1-4 against several kinases identified two prominent targets of these compounds as the Aurora A kinase and calcium dependent protein kinase C isoforms α, βI, βII and […] (Tables 1 to 3). IC50s for these two targets were obtained by plotting inhibition levels at 500 nM, 100 nM, 50 nM and 10 nM (FIG. 3). These kinases are directly involved in pathways controlling cell differentiation programs, metastasis signaling, as well as EMT and CSC programming and their overexpression was reported to predict decreased metastasis-free survival.

[2] = molecular target: T1, AURKA (Aurora A) (Homo sapiens, UniProt O14965); conditions: for inhibition at 0.1 µM: 100 nM; for inhibition at 0.5 µM: 500 nM
T1 sequence (O14965 1-403): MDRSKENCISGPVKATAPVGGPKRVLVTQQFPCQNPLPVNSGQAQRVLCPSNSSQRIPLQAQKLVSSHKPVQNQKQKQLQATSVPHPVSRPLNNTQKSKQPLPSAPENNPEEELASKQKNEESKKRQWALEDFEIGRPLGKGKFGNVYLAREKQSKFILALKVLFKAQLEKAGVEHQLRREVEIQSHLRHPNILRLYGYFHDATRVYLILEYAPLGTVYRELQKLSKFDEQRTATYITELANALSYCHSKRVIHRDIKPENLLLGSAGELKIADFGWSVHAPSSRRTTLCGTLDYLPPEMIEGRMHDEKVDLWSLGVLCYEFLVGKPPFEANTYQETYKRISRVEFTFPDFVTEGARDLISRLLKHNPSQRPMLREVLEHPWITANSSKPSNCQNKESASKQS
Protocol: as §1

[3] = molecular target: EEF2K (Homo sapiens, UniProt O00418); conditions: read-out: Percent inhibition of kinase activity in vitro, EEF2K; for inhibition at 0.1 µM: 100 nM; for inhibition at 0.5 µM: 500 nM
Protocol: as §1

[4] = molecular target: PRKCA (PKC alpha) (Homo sapiens, UniProt P17252); conditions: for inhibition at 0.05 µM: 50 nM; for inhibition at 0.1 µM: 100 nM; for inhibition at 0.5 µM: 500 nM
Protocol: as §1

[5] = molecular target: T2, PRKCZ (PKC zeta) (Homo sapiens, UniProt Q05513); conditions: 50 nM; read-out: Percent inhibition of kinase activity in vitro, PRKCZ (PKC zeta)
T2 sequence (Q05513 1-592): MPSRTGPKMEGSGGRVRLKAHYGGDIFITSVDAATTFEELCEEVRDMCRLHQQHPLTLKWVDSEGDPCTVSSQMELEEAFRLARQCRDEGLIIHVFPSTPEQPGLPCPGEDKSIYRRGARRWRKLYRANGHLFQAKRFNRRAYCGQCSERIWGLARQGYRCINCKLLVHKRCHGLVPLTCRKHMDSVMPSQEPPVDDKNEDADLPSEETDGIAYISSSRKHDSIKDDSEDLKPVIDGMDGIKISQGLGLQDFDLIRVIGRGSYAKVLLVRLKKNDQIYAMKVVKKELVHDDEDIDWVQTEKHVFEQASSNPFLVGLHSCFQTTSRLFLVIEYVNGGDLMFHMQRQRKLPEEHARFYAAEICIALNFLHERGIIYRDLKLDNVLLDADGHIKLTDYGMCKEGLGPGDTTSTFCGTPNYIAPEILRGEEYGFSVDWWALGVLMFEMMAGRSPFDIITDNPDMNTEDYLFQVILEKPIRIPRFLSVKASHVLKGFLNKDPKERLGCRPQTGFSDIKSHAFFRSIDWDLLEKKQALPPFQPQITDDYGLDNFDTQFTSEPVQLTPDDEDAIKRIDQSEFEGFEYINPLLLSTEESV
Protocol: as §1

[6] = molecular target: AKT1 (PKB alpha) (Homo sapiens, UniProt P31749); conditions: read-out: Percent inhibition of kinase activity in vitro, AKT1 (PKB alpha); for inhibition at 0.1 µM: 100 nM; for inhibition at 0.5 µM: 500 nM
AKT1 (PKB alpha), sequence (P31749 whole entry): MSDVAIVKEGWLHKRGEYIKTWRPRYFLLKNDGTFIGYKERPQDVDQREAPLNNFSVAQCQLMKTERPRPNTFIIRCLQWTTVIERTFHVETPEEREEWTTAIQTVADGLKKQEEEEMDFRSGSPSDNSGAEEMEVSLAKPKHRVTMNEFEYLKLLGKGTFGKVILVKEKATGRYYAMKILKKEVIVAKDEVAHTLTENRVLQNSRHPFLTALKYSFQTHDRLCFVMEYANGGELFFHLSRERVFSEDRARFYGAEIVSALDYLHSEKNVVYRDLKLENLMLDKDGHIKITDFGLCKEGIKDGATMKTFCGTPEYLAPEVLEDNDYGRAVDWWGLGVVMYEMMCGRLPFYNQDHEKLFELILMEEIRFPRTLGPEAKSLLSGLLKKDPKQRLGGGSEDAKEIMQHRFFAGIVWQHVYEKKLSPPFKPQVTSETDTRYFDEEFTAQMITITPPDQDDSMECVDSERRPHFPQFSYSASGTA
Protocol: as §1

[7] = molecular target: T3, TGFBR1 (ALK5) (Homo sapiens, UniProt P36897); conditions: read-out: Percent inhibition of kinase activity in vitro, TGFBR1 (ALK5); for inhibition at 0.1 µM: 100 nM; for inhibition at 0.5 µM: 500 nM
T3 sequence (P36897 34-503): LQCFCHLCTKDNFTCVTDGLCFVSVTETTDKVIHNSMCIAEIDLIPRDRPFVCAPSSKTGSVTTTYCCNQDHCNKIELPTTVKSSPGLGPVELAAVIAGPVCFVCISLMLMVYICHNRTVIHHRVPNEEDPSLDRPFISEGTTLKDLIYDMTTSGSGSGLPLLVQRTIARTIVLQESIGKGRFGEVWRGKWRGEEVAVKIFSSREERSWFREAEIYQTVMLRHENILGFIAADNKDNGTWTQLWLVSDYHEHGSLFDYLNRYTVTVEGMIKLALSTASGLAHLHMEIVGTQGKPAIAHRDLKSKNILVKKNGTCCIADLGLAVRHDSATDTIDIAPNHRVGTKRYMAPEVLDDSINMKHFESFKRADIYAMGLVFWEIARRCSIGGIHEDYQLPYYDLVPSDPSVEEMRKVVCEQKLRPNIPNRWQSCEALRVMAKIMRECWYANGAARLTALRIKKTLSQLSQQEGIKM
Protocol: as §1

[8] = molecular target: SRC (Homo sapiens, UniProt P12931); conditions: read-out: Percent inhibition of kinase activity in vitro, SRC; for inhibition at 0.1 µM: 100 nM; for inhibition at 0.5 µM: 500 nM
SRC, sequence (P12931 whole entry): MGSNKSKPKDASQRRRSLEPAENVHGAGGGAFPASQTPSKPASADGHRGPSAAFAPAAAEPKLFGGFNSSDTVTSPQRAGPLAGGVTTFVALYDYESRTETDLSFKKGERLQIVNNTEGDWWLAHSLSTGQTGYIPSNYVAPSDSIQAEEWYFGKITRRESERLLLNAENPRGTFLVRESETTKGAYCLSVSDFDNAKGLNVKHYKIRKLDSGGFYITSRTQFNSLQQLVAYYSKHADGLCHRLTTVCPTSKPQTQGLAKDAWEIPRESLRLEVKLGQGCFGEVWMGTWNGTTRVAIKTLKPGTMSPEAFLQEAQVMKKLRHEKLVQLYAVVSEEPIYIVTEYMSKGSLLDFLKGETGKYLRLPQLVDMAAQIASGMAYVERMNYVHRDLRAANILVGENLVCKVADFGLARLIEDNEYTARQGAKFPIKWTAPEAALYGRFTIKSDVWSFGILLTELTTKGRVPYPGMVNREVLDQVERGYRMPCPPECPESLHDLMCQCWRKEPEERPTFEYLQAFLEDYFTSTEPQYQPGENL
Protocol: as §1

[9] = molecular target: MET (cMet) (Homo sapiens, UniProt P08581); conditions: read-out: Percent inhibition of kinase activity in vitro, MET (cMet); for inhibition at 0.1 µM: 100 nM; for inhibition at 0.5 µM: 500 nM
MET (cMet), sequence (P08581 25-1390): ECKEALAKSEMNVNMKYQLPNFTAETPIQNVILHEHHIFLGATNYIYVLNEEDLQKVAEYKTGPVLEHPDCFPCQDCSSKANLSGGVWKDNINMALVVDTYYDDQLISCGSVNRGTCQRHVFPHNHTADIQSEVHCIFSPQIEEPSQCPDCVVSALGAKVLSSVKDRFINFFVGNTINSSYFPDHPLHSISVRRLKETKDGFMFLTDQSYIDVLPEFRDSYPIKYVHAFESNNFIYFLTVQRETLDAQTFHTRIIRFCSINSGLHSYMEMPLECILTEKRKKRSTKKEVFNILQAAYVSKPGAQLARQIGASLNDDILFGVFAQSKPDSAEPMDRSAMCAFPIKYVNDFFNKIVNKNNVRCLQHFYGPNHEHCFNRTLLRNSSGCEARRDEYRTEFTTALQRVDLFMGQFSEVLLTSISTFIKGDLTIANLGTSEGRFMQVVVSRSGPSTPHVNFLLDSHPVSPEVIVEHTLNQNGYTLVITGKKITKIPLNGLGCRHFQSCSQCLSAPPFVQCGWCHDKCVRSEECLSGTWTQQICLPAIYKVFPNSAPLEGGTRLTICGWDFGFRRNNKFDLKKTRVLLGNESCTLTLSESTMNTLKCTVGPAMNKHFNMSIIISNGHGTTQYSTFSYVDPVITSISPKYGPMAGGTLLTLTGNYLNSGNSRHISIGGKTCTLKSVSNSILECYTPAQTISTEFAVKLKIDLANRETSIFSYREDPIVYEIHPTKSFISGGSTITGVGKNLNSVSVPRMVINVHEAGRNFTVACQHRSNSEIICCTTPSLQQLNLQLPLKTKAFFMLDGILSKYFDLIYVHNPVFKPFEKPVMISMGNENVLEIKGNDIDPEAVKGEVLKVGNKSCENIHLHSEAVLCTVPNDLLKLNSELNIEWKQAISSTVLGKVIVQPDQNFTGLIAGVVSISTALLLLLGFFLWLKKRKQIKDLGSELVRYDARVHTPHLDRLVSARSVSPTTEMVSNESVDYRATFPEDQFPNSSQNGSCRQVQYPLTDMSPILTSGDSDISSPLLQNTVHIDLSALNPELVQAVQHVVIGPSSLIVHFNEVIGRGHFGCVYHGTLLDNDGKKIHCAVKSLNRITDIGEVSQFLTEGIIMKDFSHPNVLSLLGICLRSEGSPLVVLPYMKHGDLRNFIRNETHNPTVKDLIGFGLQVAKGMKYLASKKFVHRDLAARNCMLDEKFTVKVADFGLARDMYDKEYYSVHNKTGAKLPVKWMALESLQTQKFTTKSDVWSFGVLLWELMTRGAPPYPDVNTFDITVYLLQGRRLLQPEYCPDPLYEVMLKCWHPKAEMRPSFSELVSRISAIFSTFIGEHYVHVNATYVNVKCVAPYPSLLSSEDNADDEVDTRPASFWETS
Protocol: as §1

[10] = molecular target: BRAF-ZLYTE-100 (Homo sapiens, UniProt P15056); conditions: 100 nM; read-out: Percent inhibition of kinase activity in vitro, BRAF-ZLYTE-100
Protocol: as §1

[11] = molecular target: EGFR (ErbB1) (Homo sapiens, UniProt P00533); conditions: read-out: Percent inhibition of kinase activity in vitro, EGFR (ErbB1); for inhibition at 0.1 µM: 100 nM; for inhibition at 0.5 µM: 500 nM
EGFR (ErbB1), sequence (P00533 25-1210): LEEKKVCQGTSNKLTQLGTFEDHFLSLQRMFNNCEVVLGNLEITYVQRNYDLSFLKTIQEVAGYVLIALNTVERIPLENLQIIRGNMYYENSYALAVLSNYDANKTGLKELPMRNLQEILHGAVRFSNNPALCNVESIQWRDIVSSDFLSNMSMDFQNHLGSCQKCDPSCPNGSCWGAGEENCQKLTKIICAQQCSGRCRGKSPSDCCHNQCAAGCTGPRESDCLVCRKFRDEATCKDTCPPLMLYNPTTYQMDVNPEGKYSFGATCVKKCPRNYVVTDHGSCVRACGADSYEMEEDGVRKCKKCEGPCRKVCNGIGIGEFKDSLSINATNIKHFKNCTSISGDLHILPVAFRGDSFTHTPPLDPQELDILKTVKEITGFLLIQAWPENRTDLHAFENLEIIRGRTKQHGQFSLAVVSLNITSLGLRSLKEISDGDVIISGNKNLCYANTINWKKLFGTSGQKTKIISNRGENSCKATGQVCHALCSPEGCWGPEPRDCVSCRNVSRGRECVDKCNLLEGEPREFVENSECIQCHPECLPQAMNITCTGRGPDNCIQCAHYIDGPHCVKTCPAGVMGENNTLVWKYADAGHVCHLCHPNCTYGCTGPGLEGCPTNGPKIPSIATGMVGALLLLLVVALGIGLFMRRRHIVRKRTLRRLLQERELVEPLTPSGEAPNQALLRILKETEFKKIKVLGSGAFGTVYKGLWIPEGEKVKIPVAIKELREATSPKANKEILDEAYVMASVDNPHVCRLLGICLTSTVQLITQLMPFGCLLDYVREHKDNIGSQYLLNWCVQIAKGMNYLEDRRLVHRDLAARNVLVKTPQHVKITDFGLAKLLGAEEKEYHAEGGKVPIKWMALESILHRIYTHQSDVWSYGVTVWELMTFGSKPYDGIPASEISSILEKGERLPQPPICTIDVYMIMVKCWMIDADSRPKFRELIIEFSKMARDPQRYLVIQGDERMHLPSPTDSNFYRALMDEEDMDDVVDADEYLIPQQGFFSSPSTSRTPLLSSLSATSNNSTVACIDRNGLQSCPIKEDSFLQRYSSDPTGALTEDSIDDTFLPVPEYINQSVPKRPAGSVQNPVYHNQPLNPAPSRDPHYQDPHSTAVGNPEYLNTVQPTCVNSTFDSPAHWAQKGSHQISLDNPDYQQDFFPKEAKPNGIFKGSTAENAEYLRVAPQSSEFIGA
Protocol: as §1

[12] = molecular target: FGFR1 (Homo sapiens, UniProt P11362); conditions: read-out: Percent inhibition of kinase activity in vitro, FGFR1; for inhibition at 0.1 µM: 100 nM; for inhibition at 0.5 µM: 500 nM
Protocol: as §1

[13] = molecular target: JAK2 (Homo sapiens, UniProt O60674); conditions: read-out: Percent inhibition of kinase activity in vitro, JAK2; for inhibition at 0.1 µM: 100 nM; for inhibition at 0.5 µM: 500 nM
JAK2, sequence (O60674 whole entry): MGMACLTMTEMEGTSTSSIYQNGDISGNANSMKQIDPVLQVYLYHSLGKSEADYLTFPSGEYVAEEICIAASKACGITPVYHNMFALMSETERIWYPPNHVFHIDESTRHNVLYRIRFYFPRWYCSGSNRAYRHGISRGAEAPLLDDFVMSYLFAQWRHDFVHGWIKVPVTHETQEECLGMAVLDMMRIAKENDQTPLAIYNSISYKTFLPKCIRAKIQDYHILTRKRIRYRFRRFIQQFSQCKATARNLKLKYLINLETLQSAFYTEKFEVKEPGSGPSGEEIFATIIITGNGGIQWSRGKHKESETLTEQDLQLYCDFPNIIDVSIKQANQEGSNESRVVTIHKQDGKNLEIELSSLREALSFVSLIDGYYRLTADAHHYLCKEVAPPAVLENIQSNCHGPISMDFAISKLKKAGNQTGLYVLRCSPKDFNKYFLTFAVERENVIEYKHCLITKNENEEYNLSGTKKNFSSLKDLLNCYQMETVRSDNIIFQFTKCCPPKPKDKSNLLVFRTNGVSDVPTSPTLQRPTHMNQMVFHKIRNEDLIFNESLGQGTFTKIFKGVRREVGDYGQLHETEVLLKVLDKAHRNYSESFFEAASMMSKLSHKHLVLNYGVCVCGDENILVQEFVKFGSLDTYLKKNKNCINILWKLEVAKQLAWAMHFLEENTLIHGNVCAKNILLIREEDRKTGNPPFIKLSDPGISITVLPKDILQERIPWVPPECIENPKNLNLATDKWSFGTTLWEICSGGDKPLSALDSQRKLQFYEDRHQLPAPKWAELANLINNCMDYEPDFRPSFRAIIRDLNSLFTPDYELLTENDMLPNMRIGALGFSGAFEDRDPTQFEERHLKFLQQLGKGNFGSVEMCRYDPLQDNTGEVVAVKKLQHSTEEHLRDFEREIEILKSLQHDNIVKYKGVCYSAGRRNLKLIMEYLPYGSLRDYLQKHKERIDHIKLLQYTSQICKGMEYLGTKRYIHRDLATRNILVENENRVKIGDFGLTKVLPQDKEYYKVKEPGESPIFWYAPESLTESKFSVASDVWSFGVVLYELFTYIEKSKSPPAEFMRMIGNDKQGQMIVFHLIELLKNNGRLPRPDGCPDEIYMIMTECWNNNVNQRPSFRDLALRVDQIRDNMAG
Protocol: as §1

[14] = read-out: Percent inhibition of kinase activity in vitro, AURKA (Aurora A)
[15] = read-out: Percent inhibition of kinase activity in vitro, PRKCA (PKC alpha)
[16] = from inhibition levels at 500, 100, 50 and 10 nM

| Structure (SMILES) | inhibition at 0.1 µM [1] | inhibition at 0.5 µM [1] | inhibition at 0.1 µM [2, 14] | inhibition at 0.5 µM [2, 14] | inhibition at 0.1 µM [3] | inhibition at 0.5 µM [3] | inhibition at 0.05 µM [4, 15] | inhibition at 0.1 µM [4, 15] | inhibition at 0.5 µM [4, 15] | inhibition at 0.05 µM [5] | inhibition at 0.1 µM [6] | inhibition at 0.5 µM [6] | inhibition at 0.1 µM [7] | inhibition at 0.5 µM [7] | inhibition at 0.1 µM [8] | inhibition at 0.5 µM [8] | inhibition at 0.1 µM [9] | inhibition at 0.5 µM [9] | inhibition at 0.1 µM [10] | inhibition at 0.1 µM [13] | also measured |
| --- | --- | --- | --- | --- | --- | --- | --- | --- | --- | --- | --- | --- | --- | --- | --- | --- | --- | --- | --- | --- | --- |
| O=c1c2ccccc2[se]n1-c1nc(NC2CCCCC2)c2nc[nH]c2n1 [Compound 1] | 5% | 23% | 89% | 94% | 7% | 11% | 68% | 83% | 98% | 9% | 4% | 11% | 0% | 0% | 1% | 5% | 2% | 10% | 1% | 10% | inhibition at 0.1 µM [11]: 1%; inhibition at 0.5 µM [11]: 0%; inhibition at 0.1 µM [12]: 0%; inhibition at 0.5 µM [12]: 2%; inhibition at 0.5 µM [13]: 10% |
| O=c1c2ccccc2[se]n1-c1nc(NC2CC[Se]C2)c2nc[nH]c2n1 (centres unmarked) [Compound 2] | 6% | 18% | 93% | 97% |  | 11% |  | 84% | 96% |  | 4% | 15% | 0% | 0% | 4% | 7% | 1% | 5% | 0% | 15% | inhibition at 0.5 µM [11]: 0%; inhibition at 0.5 µM [12]: 0%; inhibition at 0.5 µM [13]: 13% |
| C[C@@H]1C(Nc2nc(-n3[se]c4ccccc4c3=O)nc3[nH]cnc23)C[C@H]2C[C@@H]1C2(C)C (some centres unmarked) [Compound 3] | 5% | 36% | 78% | 99% |  | 5% |  | 45% | 86% |  | 1% | 29% | 3% | 0% | 4% | 7% | 0% | 17% | 0% | 13% | inhibition at 0.5 µM [11]: 0%; inhibition at 0.5 µM [12]: 13%; inhibition at 0.5 µM [13]: 11% |
| O=c1c2ccccc2[se]n1-c1nc(N[C@H]2CC[Se]C2)c2nc[nH]c2n1 [Compound 4] | 10% |  | 95% |  | 10% |  | 101% | 98% |  | 12% | 4% |  | 0% |  | 4% |  | 4% |  | 0% | 18% | inhibition at 0.01 µM ([2]; 10 nM, read-out: Percent inhibition of kinase activity in vitro, AURKA (Aurora A)): 55%; inhibition at 0.05 µM ([2]; 50 nM, read-out: Percent inhibition of kinase activity in vitro, AURKA (Aurora A)): 87%; pIC50 [2, 16]: 8.42; inhibition at 0.01 µM ([4]; 10 nM, read-out: Percent inhibition of kinase activity in vitro, PRKCA (PKC alpha)): 22%; pIC50 [4, 16]: 7.96; inhibition at 0.1 µM [11]: 0%; inhibition at 0.1 µM [12]: 0% |
| O=C1c2ccccc2CN1c1nc(NC2CCCCC2)c2nc[nH]c2n1 [SLLN-6C, reference compound] | 6% |  | 4% |  | 1% |  | 14% | 0% |  | 9% | 2% |  | 0% |  | 3% |  | 0% |  | 1% | 7% | inhibition at 0.1 µM [11]: 4%; inhibition at 0.1 µM [12]: 0% |
